1 compound from ChEMBL document CHEMBL1136703, “Leporin B: a novel hexokinase II gene inducing agent from an unidentified fungus” (Bioorg Med Chem Lett, 2003) can be followed below.

For orientation: IC50 means the concentration needed to halve the response being measured. The low end stands for greater potency, the high end for weaker potency.

The subject of the experiment is L6. Description: Inhibitory concentration against induction of Hexokinase II-luci signal in the reporter cell line. Conditions: Rattus norvegicus. It counts as functional, cell-based.

Turning to `C/C=C/C1Oc2c(-c3ccccc3)cn(O)c(=O)c2C2C(C)CCCC12` (stereo unspecified), the 50% inhibitory concentration (IC50) was found to be 10 µM.
